Activity calls are given as the source filed them. The calls are words filed in the database; no cut-off is given here.
How the values were obtained:
GISTT1 = experiment: Antiproliferative activity against human GISTT1 cells harboring heterozygous V560-Y578 deletion mutant assessed as reduction in cell viability by MTS assay; format: functional
[1] = biological target: Mast/stem cell growth factor receptor Kit (Homo sapiens, UniProt P10721, V560G); experiment: Inhibition of human c-KIT JM domain exon 11 V560G single mutant using poly (Glu,Tyr) 4:1 as substrate in presence of 33P-gamma-ATP by hotspot kinase assay
Mast/stem cell growth factor receptor Kit (Homo sapiens, UniProt P10721, V560G), sequence (P10721 26-976 V560G limits assumed): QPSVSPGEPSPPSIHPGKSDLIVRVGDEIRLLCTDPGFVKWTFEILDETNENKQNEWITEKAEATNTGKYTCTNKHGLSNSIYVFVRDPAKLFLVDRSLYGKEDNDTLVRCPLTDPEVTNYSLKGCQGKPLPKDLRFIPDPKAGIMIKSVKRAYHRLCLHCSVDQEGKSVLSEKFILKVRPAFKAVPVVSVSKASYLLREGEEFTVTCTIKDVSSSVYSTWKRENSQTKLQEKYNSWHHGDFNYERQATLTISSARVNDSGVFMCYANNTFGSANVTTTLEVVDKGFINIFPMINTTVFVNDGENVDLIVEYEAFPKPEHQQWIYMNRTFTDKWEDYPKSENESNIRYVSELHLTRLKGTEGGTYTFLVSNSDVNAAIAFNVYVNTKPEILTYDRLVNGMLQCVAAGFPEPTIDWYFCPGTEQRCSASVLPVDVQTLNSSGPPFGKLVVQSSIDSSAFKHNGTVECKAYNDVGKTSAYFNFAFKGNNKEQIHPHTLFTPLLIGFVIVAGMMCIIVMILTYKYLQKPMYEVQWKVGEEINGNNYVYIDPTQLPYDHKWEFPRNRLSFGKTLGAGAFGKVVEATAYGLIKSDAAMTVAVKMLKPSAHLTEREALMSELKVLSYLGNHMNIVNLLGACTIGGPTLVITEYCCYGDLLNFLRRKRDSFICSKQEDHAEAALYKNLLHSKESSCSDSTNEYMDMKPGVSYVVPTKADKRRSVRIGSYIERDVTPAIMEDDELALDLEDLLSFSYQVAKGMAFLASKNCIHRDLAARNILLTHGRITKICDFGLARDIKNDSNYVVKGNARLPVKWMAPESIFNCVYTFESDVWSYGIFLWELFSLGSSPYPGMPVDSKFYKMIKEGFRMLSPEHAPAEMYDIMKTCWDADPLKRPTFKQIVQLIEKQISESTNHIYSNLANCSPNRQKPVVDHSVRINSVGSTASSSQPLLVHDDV

[2] = biological target: T1, Mast/stem cell growth factor receptor Kit (Homo sapiens, UniProt P10721); experiment: Inhibition of recombinant human N-terminal 6x-His-tagged c-KIT (547 to 935 residues)/(694 to 753 residues deletion) expressed in baculovirus infected Sf9 insect cells assessed as decrease in poly (Glu,Tyr) 4:1 phosphorylation measured after 150 mins in presence of ATP by ADP-glo based luminescence assay
[3] = biological target: T1, Mast/stem cell growth factor receptor Kit; experiment: Inhibition of ATP-activated recombinant human N-terminal 6x-His-tagged c-KIT (547 to 935 residues)/(694 to 753 residues deletion) expressed in baculovirus infected Sf9 insect cells assessed as decrease in poly (Glu,Tyr) 4:1 phosphorylation incubated for 30 mins followed by ATP addition and measured after 30 mins by Kinase Glo based luminescence assay
[4] = biological target: Mast/stem cell growth factor receptor Kit (Homo sapiens, UniProt P10721, V654A); experiment: Inhibition of human c-KIT ATP binding domain exon 13 V654A single mutant using poly (Glu,Tyr) 4:1 as substrate in presence of 33P-gamma-ATP by hotspot kinase assay
Mast/stem cell growth factor receptor Kit (Homo sapiens, UniProt P10721, V654A), sequence (P10721 26-976 V654A limits assumed): as the sequence (P10721 26-976 V560G limits assumed) above, with G535V, V629A counted along it

[5] = test system: Mast/stem cell growth factor receptor Kit (Homo sapiens), P10721 [K642E]; experiment: Inhibition of human c-KIT ATP binding domain exon 13 K642E single mutant at 10 nM using poly (Glu,Tyr) 4:1 as substrate in presence of 33P-gamma-ATP by hotspot kinase assay relative to control
Mast/stem cell growth factor receptor Kit (Homo sapiens), P10721 [K642E], sequence (P10721 whole entry K642E, the tested form may be a part): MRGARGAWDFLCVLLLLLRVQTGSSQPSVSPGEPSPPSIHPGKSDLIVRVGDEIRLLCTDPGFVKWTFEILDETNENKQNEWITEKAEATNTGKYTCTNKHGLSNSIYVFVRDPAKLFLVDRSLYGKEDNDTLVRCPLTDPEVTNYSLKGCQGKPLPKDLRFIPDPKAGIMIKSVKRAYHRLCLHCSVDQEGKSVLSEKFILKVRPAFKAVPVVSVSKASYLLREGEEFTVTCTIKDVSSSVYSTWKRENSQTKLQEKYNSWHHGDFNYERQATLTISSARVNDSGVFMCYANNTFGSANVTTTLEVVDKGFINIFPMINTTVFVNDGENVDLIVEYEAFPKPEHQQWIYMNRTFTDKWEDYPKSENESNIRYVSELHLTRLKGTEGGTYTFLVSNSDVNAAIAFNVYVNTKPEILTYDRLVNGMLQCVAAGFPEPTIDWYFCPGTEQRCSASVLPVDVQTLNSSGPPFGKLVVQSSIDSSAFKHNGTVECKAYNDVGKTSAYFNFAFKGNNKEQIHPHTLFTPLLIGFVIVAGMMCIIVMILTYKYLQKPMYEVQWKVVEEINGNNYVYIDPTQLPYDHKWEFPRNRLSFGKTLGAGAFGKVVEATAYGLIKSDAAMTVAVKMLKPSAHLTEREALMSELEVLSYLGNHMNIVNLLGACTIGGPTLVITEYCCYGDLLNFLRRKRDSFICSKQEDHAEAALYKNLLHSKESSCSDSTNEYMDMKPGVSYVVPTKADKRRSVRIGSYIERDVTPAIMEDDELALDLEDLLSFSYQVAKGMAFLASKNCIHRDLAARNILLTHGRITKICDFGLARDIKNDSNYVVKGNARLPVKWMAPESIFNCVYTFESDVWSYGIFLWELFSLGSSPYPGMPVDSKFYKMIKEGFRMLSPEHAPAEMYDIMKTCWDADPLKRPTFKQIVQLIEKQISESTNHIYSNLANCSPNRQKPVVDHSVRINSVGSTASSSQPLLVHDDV

[6] = biological target: Mast/stem cell growth factor receptor Kit (Homo sapiens, UniProt P10721, T670I); experiment: Inhibition of human c-KIT ATP binding domain exon 14 T670I single mutant using poly (Glu,Tyr) 4:1 as substrate in presence of 33P-gamma-ATP by hotspot kinase assay
Mast/stem cell growth factor receptor Kit (Homo sapiens, UniProt P10721, T670I), sequence (P10721 26-976 T670I limits assumed): as the sequence (P10721 26-976 V560G limits assumed) above, with G535V, T645I counted along it

[7] = biological target: Mast/stem cell growth factor receptor Kit (Homo sapiens, UniProt P10721, D820Y); experiment: Inhibition of human c-KIT A loop exon 17 D820Y single mutant using poly (Glu,Tyr) 4:1 as substrate in presence of 33P-gamma-ATP by hotspot kinase assay
Mast/stem cell growth factor receptor Kit (Homo sapiens, UniProt P10721, D820Y), sequence (P10721 26-976 D820Y limits assumed): as the sequence (P10721 26-976 V560G limits assumed) above, with G535V, D795Y counted along it

[8] = test system: Mast/stem cell growth factor receptor Kit (Homo sapiens), P10721 [A829P]; experiment: Inhibition of human c-KIT A loop exon 18 A829P single mutant at 100 nM using poly (Glu,Tyr) 4:1 as substrate in presence of 33P-gamma-ATP by hotspot kinase assay relative to control
Mast/stem cell growth factor receptor Kit (Homo sapiens), P10721 [A829P], sequence (P10721 whole entry A829P): as the sequence (P10721 whole entry K642E, the tested form may be a part) above, with E642K, A829P counted along it

[9] = test system: Mast/stem cell growth factor receptor Kit (Homo sapiens), P10721 [A829P]; experiment: Inhibition of human c-KIT A loop exon 18 A829P single mutant at 10 nM using poly (Glu,Tyr) 4:1 as substrate in presence of 33P-gamma-ATP by hotspot kinase assay relative to control
[10] = biological target: Mast/stem cell growth factor receptor Kit (Homo sapiens, UniProt P10721, D816V/V560G); experiment: Inhibition of human c-KIT A loop exon 11/17 V560G/D816V double mutant using poly (Glu,Tyr) 4:1 as substrate in presence of 33P-gamma-ATP by hotspot kinase assay
Mast/stem cell growth factor receptor Kit (Homo sapiens, UniProt P10721, D816V/V560G), sequence (P10721 26-976 V560G/D816V limits assumed): as the sequence (P10721 26-976 V560G limits assumed) above, with D791V counted along it

[11] = test system: Mast/stem cell growth factor receptor Kit (Homo sapiens), P10721 [V560G,D816V]; experiment: Inhibition of human c-KIT A loop exon 11/17 V560G/D816V double mutant at 100 nM using poly (Glu,Tyr) 4:1 as substrate in presence of 33P-gamma-ATP by hotspot kinase assay relative to control
Mast/stem cell growth factor receptor Kit (Homo sapiens), P10721 [V560G,D816V], sequence (P10721 whole entry V560G/D816V): as the sequence (P10721 whole entry K642E, the tested form may be a part) above, with V560G, E642K, D816V counted along it

[12] = biological target: Mast/stem cell growth factor receptor Kit (Homo sapiens, UniProt P10721, N822K/V560G); experiment: Inhibition of human c-KIT A loop exon 11/17 V560G/N822K double mutant using poly (Glu,Tyr) 4:1 as substrate in presence of 33P-gamma-ATP by hotspot kinase assay
Mast/stem cell growth factor receptor Kit (Homo sapiens, UniProt P10721, N822K/V560G), sequence (P10721 26-976 V560G/N822K limits assumed): as the sequence (P10721 26-976 V560G limits assumed) above, with N797K counted along it

GIST882 [13] = experiment: Antiproliferative activity against human GIST882 cells harboring c-KIT exon 13 homozygous primary K642E mutant assessed as reduction in cell viability by MTS assay; format: functional
GIST882 [14] = experiment: Antiproliferative activity against human GIST882 cells harboring c-KIT exon 13 homozygous primary K642E mutant assessed as reduction in cell viability by methylene blue staining based assay; format: functional
GIST430 [15] = experiment: Antiproliferative activity against human GIST430 cells harboring c-KIT exon 11 primary in-frame V560-L576 deletion mutant and exon 13 heterozygous secondary missense V654A mutant assessed as reduction in cell viability by MTS assay; format: functional
GIST430 [16] = experiment: Antiproliferative activity against human GIST430 cells harboring c-KIT exon 11 primary in-frame V560-L576 deletion mutant and exon 13 heterozygous secondary missense V654A mutant assessed as reduction in cell viability by methylene blue staining based assay; format: functional
[17] = Antiproliferative activity against human Detroit 551 assessed as reduction in cell viability after 72 hrs by MTS assay; format: cell-based; settings: Detroit 551 cells
A549 = experiment: Antiproliferative activity against human A549 assessed as reduction in cell viability after 72 hrs by MTS assay; format: functional; settings: A549, 72 h
[18] = test system: Mast/stem cell growth factor receptor Kit (Homo sapiens), P10721 [UNDEFINED MUTATION]; experiment: Inhibition of c-KIT V560-L576 deletion/V654A double mutant phosphorylation in human GIST430 cells at 10 to 100 nM measured after 24 to 72 hrs by Western blot analysis; format: cell-based
Mast/stem cell growth factor receptor Kit (Homo sapiens), P10721 [UNDEFINED MUTATION], sequence (P10721 whole entry, looked up, stated change not applied): as the sequence (P10721 whole entry K642E, the tested form may be a part) above, with E642K counted along it

[19] = test system: Mast/stem cell growth factor receptor Kit (Homo sapiens), P10721 [UNDEFINED MUTATION]; experiment: Inhibition of c-KIT V560-L576 deletion/V654A double mutant phosphorylation in human GIST430 cells assessed as decrease in phosphorylation of AKT at 10 to 100 nM measured after 24 to 72 hrs by Western blot analysis; format: cell-based
[20] = test system: Mast/stem cell growth factor receptor Kit (Homo sapiens), P10721 [UNDEFINED MUTATION]; experiment: Inhibition of c-KIT V560-L576 deletion/V654A double mutant phosphorylation in human GIST430 cells assessed as decrease in phosphorylation of MEK at 10 to 100 nM measured after 24 to 72 hrs by Western blot analysis; format: cell-based
[21] = Cmax in ICR mouse at 10 mg/kg, po administered as single dose measured up to 24 hrs by LC-MS/MS analysis; format: ADME, organism-based; parameters: dose 10 mg/kg, route oral; settings: in vivo
[22] = AUC in ICR mouse at 10 mg/kg, po administered as single dose measured up to 24 hrs by LC-MS/MS analysis; format: ADME, organism-based; parameters: dose 10 mg/kg, time < 24 hr, route oral; settings: in vivo
[23] = Plasma clearance in ICR mouse at 2 mg/kg, iv administered as single dose measured up to 24 hrs by LC-MS/MS analysis; format: ADME, organism-based
Mus musculus = experiment: Decrease in c-KIT phosphorylation in po dosed NOD-SCID mouse xenografted with human GIST430 cells harboring c-KIT exon 11 primary in-frame V560-L576 deletion mutant and exon 13 heterozygous secondary missense V654A mutant measured after 8 hrs by immunoblotting method; format: functional, organism-based
[24] = test system: Mast/stem cell growth factor receptor Kit (Homo sapiens), P10721 [D816H]; settings: at 100 nM
Mast/stem cell growth factor receptor Kit (Homo sapiens), P10721 [D816H], sequence (P10721 whole entry D816H): as the sequence (P10721 whole entry K642E, the tested form may be a part) above, with E642K, D816H counted along it
Description: Inhibition of human c-KIT A loop exon 17 D816H single mutant at 100 nM using poly (Glu,Tyr) 4:1 as substrate in presence of 33P-gamma-ATP by hotspot kinase assay relative to control

[25] = test system: Mast/stem cell growth factor receptor Kit (Homo sapiens), P10721 [D816V]; settings: at 100 nM
Mast/stem cell growth factor receptor Kit (Homo sapiens), P10721 [D816V], sequence (P10721 whole entry D816V): as the sequence (P10721 whole entry K642E, the tested form may be a part) above, with E642K, D816V counted along it
Description: Inhibition of human c-KIT A loop exon 17 D816V single mutant at 100 nM using poly (Glu,Tyr) 4:1 as substrate in presence of 33P-gamma-ATP by hotspot kinase assay relative to control

[26] = test system: Mast/stem cell growth factor receptor Kit (Homo sapiens), P10721 [Y823D]; settings: at 100 nM
Mast/stem cell growth factor receptor Kit (Homo sapiens), P10721 [Y823D], sequence (P10721 whole entry Y823D): as the sequence (P10721 whole entry K642E, the tested form may be a part) above, with E642K, Y823D counted along it
Description: Inhibition of human c-KIT A loop exon 17 Y823D single mutant at 100 nM using poly (Glu,Tyr) 4:1 as substrate in presence of 33P-gamma-ATP by hotspot kinase assay relative to control

`CCc1cc(NC(=O)Nc2ccc(-c3cnc(Nc4cc(N5CCN(CC)CC5)ncn4)s3)cc2)no1` gave a GI50 (GISTT1) of 2.2 nM, an IC50 [1] of 0.98 nM and an IC50 [2] of 82 nM. It also gave an IC50 [3] of 92 nM, an IC50 [4] of 4.14 nM and an inhibition [5] of 82%. The IC50 [6] was 1.66 nM, the IC50 [7] was 0.02 nM and the inhibition [8] was 99%. It also gave an inhibition [9] of 90%, an IC50 [10] of 9.27 nM and an inhibition [11] of 63%. The IC50 [12] was 0.18 nM, the GI50 (GIST882 [13]) was 3 nM and the GI50 (GIST882 [14]) was 3 nM. It also gave a GI50 (GIST430 [15]) of 1 nM, a GI50 (GIST430 [16]) of 1 nM and a GI50 at 72 h [17] of over 10000 nM. The GI50 (A549) was 14600 nM, the inhibition [18] was “Active” and the inhibition [19] was “Active”. The inhibition [20] was “Active”, the Cmax [21] was 562 ng/mL and the AUC at 24 h [22] was 2800 ng·h/mL. For the same molecule, the clearance [23] was 20.2 mL/min/kg, the Activity (Mus musculus) was “Dose-dependent effect” and the inhibition [24] was 96%. For the same molecule, the inhibition [25] was 73% and the inhibition [26] was 100%.

Reference: ChEMBL document CHEMBL4385613, “Discovery of Conformational Control Inhibitors Switching off the Activated c-KIT and Targeting a Broad Range of Clinically Relevant c-KIT Mutants” (J Med Chem, 2019)
